Test results from US10004701B2, “Methods and compositions for treating infection” (UNIVERSITY OF ROCHESTER, priority 2012, dated 2018).
Counter-ions that a name gives are not always drawn.

Legend:
Assay in all cases: AK assay 384-well format, Prestwick library screening
[1] = system: A. baumannii strain 98-37-09; format: cell-based, Acinetobacter baumannii
[2] = system: E. faecium; format: cell-based, Enterococcus faecium
[3] = system: E. cloacae; format: cell-based, Enterobacter cloacae
[4] = system: K. pneumoniae; format: cell-based, Klebsiella pneumoniae
[5] = system: E. coli; format: cell-based, Escherichia coli
[6] = system: P. aeruginosa; format: cell-based, Pseudomonas aeruginosa
[7] = system: S. aureus strain USA300-0114; format: cell-based, Staphylococcus aureus
[8] = 50 μM final drug concentration, planktonic, cutoff for positive 3-fold increase
[9] = 50 μM final drug concentration, planktonic, cutoff for positive-scoring molecules 3-fold increase
[10] = 50 μM final drug concentration, cutoff for positive-scoring molecules 3-fold increase

CC(C)NCC(O)c1ccc(O)c(O)c1.Cl (single isomer, unassigned; (-)) [(−)-Isoproterenol hydrochloride]
AK-based Prestwick library screening result, A. baumannii (fold increase in extracellular AK activity) ([1]; planktonic A. baumannii, 50 μM final drug concentration, positive cutoff 3-fold increase): 0.9 | AK-based Prestwick library screening result, E. faecium (fold increase in extracellular AK activity) ([2]; planktonic E. faecium, 50 μM final drug concentration, positive cutoff 3-fold increase): 0.9 | AK-based Prestwick library screening result, E. cloacae (fold increase in extracellular AK activity) ([3]; planktonic E. cloacae, 50 μM final drug concentration, positive cutoff 3-fold increase): 2.3 | AK-based Prestwick library screening result, K. pneumoniae (fold increase in extracellular AK activity) ([4]; planktonic K. pneumoniae, 50 μM final drug concentration, positive cutoff 3-fold increase): 1.2 | AK-based Prestwick library screening result, E. coli (fold increase in extracellular AK activity) ([5]; planktonic E. coli, 50 μM final drug concentration, positive cutoff 3-fold increase): 1.2 | AK-based Prestwick library screening result, P. aeruginosa (fold increase in extracellular AK activity) ([6]; planktonic P. aeruginosa, 50 μM final drug concentration, positive cutoff 3-fold increase): 1.1 | AK-based Prestwick library screening result, S. aureus (fold increase in extracellular AK activity) ([7]; planktonic S. aureus, 50 μM final drug concentration, positive cutoff 3-fold increase): 0.9

CC(=C(CCO)SSCC1CCCO1)N(C=O)Cc1cnc(C)nc1N (stereo in doubt) [Fursultiamine Hydrochloride]
fold induction at 50 µM ([1]; Acinetobacter baumannii, 983709, 3 h, read-out: AK-based Prestwick library screening result, A. baumannii (fold increase in extracellular AK activity)): 1.3 | fold induction at 50 µM ([2]; Enterococcus faecium, 3 h, read-out: AK-based Prestwick library screening result, E. faecium (fold increase in extracellular AK activity)): 1.1 | fold induction at 50 µM ([3]; Enterobacter cloacae, 3 h, read-out: AK-based Prestwick library screening result, E. cloacae (fold increase in extracellular AK activity)): 1.2 | fold induction at 50 µM ([4]; Klebsiella pneumoniae, 3 h, read-out: AK-based Prestwick library screening result, K. pneumoniae (fold increase in extracellular AK activity)): 1 | fold induction at 50 µM ([5]; Escherichia coli, 3 h, read-out: AK-based Prestwick library screening result, E. coli (fold increase in extracellular AK activity)): 1.4 | fold induction at 50 µM ([6]; Pseudomonas aeruginosa, 3 h, read-out: AK-based Prestwick library screening result, P. aeruginosa (fold increase in extracellular AK activity)): 1.1 | fold induction at 50 µM ([7]; Staphylococcus aureus, USA300, 3 h, read-out: AK-based Prestwick library screening result, S. aureus (fold increase in extracellular AK activity)): 1

CC(=O)NC1[C@@H](O)OC(CO)[C@@H](O)[C@H]1O[C@H](C)C(=O)O (stereo in doubt) [Muramic acid, N-acetyl]
AK-based Prestwick Library Screening Results, A. baumannii (fold increase in extracellular AK activity) [1, 8]: 1.5 | AK-based Prestwick Library Screening Results, E. faecium (fold increase in extracellular AK activity) [2, 8]: 1.0 | AK-based Prestwick Library Screening Results, E. cloacae (fold increase in extracellular AK activity) [3, 8]: 1.4 | AK-based Prestwick Library Screening Results, K. pneumoniae (fold increase in extracellular AK activity) [4, 8]: 1.0 | AK-based Prestwick Library Screening Results, E. coli (fold increase in extracellular AK activity) [5, 8]: 1.1 | AK-based Prestwick Library Screening Results, P. aeruginosa (fold increase in extracellular AK activity) [6, 8]: 1.1 | AK-based Prestwick Library Screening Results, S. aureus (fold increase in extracellular AK activity) [7, 8]: 1.0

CC(C)NC[C@@H](O)c1ccc(O)c(O)c1.O=C(O)C(O)C(O)C(=O)O [(+)-Isoproterenol (+)-bitartrate salt]
AK-based Prestwick Library Screening Results, A. baumannii (fold increase in extracellular AK activity) [1, 9]: 0.8 | AK-based Prestwick Library Screening Results, E. faecium (fold increase in extracellular AK activity) [2, 9]: 0.9 | AK-based Prestwick Library Screening Results, E. cloacae (fold increase in extracellular AK activity) [3, 9]: 1.4 | AK-based Prestwick Library Screening Results, K. pneumoniae (fold increase in extracellular AK activity) [4, 9]: 1.0 | AK-based Prestwick Library Screening Results, E. coli (fold increase in extracellular AK activity) [5, 9]: 0.9 | AK-based Prestwick Library Screening Results, P. aeruginosa (fold increase in extracellular AK activity) [6, 9]: 0.8 | AK-based Prestwick Library Screening Results, S. aureus (fold increase in extracellular AK activity) [7, 9]: 0.8

CC(C)(C)NC[C@@H](O)COc1cccc2c1CCCC2=O.Cl [(+)-Levobunolol hydrochloride]
AK-based Prestwick Library Screening Results, A. baumannii (fold increase in extracellular AK activity) [1, 10]: 0.9 | AK-based Prestwick Library Screening Results, E. faecium (fold increase in extracellular AK activity) [2, 10]: 0.9 | AK-based Prestwick Library Screening Results, E. cloacae (fold increase in extracellular AK activity) [3, 10]: 1.5 | AK-based Prestwick Library Screening Results, K. pneumoniae (fold increase in extracellular AK activity) [4, 10]: 0.9 | AK-based Prestwick Library Screening Results, E. coli (fold increase in extracellular AK activity) [5, 10]: 1.2 | AK-based Prestwick Library Screening Results, P. aeruginosa (fold increase in extracellular AK activity) [6, 10]: 1.2 | AK-based Prestwick Library Screening Results, S. aureus (fold increase in extracellular AK activity) [7, 10]: 1.3

CC(C)NC[C@@H](O)COc1ccc(CC(N)=O)cc1 [(R)-(+)-Atenolol]
AK-based Prestwick Library Screening Results, A. baumannii (fold increase in extracellular AK activity) [1, 10]: 1.3 | AK-based Prestwick Library Screening Results, E. faecium (fold increase in extracellular AK activity) [2, 10]: 1.0 | AK-based Prestwick Library Screening Results, E. cloacae (fold increase in extracellular AK activity) [3, 10]: 1.3 | AK-based Prestwick Library Screening Results, K. pneumoniae (fold increase in extracellular AK activity) [4, 10]: 1.2 | AK-based Prestwick Library Screening Results, E. coli (fold increase in extracellular AK activity) [5, 10]: 1.3 | AK-based Prestwick Library Screening Results, P. aeruginosa (fold increase in extracellular AK activity) [6, 10]: 1.2 | AK-based Prestwick Library Screening Results, S. aureus (fold increase in extracellular AK activity) [7, 10]: 1.2
